According to publication PMC4866733 (PLoS Genetics, 2016):

Legend:
GacSH1 = biological target: T1, GacSH1 (Pseudomonas aeruginosa, UniProt G3XD98); conditions: 0.1 mM ATP, 5 mM MgCl2, 50 mM KCl, 50 mM Tris-HCl pH 7.6, 1 mM DTT, room temperature, 20 min; GacSD1 present; labelled compound
T1 construct: gene gacS

LadSH1D1 = biological target: T2, LadSH1D1 (Pseudomonas aeruginosa, UniProt Q9HX42); conditions: 0.1 mM ATP, 5 mM MgCl2, 50 mM KCl, 50 mM Tris-HCl pH 7.6, 1 mM DTT, room temperature, 20 min; labelled compound; phosphoryl transfer to H428
T2 construct: gene ladS
T2 sequence (Q9HX42 entry or part of it): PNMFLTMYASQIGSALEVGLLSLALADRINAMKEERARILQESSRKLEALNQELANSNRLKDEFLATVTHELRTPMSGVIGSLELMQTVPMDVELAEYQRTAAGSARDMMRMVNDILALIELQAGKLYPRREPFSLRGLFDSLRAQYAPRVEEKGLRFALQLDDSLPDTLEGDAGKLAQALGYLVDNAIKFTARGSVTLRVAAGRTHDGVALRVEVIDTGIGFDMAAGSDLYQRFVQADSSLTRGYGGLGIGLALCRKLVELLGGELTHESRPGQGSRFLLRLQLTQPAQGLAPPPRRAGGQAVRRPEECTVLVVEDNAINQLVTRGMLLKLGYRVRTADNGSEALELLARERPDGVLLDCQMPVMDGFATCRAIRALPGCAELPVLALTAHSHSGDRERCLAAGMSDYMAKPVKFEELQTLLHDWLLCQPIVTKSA

T1 sequence (G3XD98 entry or part of it): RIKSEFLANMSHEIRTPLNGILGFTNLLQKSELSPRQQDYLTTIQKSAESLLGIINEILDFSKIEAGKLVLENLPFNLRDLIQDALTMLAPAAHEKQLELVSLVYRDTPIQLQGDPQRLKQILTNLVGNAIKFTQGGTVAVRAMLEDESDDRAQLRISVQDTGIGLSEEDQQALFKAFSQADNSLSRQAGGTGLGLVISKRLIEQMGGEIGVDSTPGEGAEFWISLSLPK

Q: What does the source list for `Nc1ncnc2c1ncn2[C@@H]1O[C@H](COP(=O)(O)OP(=O)(O)OP(=O)(O)O)[C@@H](O)[C@H]1O` [[γ-^32P]ATP]?
A: autophosphorylation and phosphotransfer to GacSD1, SDS-PAGE and autoradiography (GacSH1): between the H1 domain of GacS and the D1 domain of GacS; autophosphorylation, SDS-PAGE and autoradiography (LadSH1D1): LadSH1D1 and LadSH1D1D→A proteins were found in an autophosphorylated form
